One assay deals with T1, PP2A (Homo sapiens, UniProt P67775).
T1 construct: made in house
Nature of the assay: Phosphatase activity of PP2A using phosphorylase a as substrate. In kind it is biochemical. Particulars: un-methylated PP2A, protein substrate phosphorylase a, absence of ME and MT. The method, then:
After the reaction, proteins were precipitated by 50% (NH4)2SO4 (final concentration) twice, and collected by centrifugation. The pellet was re-dissolved and dialyzed in a buffer containing 50 mM Tris-HCl (pH6.9) and ImM DTT for 2×2 L at 4° C. overnight. Phosphorylase a (phospho-phosphorylase b) crystallized during the dialysis. The dialysate was centrifuged 14,000 r.p.m at 4° C. for 30 minutes, the supernatant was removed and purified ^32P-labelled phosphorylase a was re-dissolved in +50% glycerol, and stored at −20° C.
To measure PP2A's phosphatase activity, PP2A (5-20 nM) was incubated with phosphorylase a (5-10 μM) at 37° C. 10% TCA (final concentration) and was added to the reaction to precipitate proteins. Supernatant that contains free ^32P-phosphate group was added into scintillation counting solution (Ecoscint, National Diagnostics), and counted by scintillation counter (LS 6000SE, Beckman).

The target of assay [1] is T2, protein phosphatase specific protein methylesterase (MEase) (Homo sapiens, UniProt Q9Y570).
T2 construct: made in house
T2 sequence (Q9Y570 1-386): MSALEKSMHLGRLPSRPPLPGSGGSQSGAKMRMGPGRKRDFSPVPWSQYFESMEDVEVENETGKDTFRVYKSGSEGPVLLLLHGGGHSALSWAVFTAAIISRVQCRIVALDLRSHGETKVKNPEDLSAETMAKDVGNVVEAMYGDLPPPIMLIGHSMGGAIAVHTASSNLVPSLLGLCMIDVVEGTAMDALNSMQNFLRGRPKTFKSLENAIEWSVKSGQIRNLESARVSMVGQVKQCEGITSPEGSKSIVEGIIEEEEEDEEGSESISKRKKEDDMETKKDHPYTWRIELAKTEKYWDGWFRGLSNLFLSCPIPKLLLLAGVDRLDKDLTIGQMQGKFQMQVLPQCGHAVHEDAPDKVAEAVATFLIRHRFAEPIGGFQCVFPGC
The assay can be described thus: PP2A demethylation with [3H]-SAM and purified proteins (methylesterase activity). Particulars: purified methylated PP2A and MEase; read-out: ME (IC50). In kind it is biochemical. The method, then: PP2A (methylated and unmethylated) were eluted with 1.6 mL of Buffer A containing 350 mM NaCl. Fractions (0.2 mL each) were collected and the radioactivity in each fraction was measured using the scintillation counter (LS 6000SE, Beckman). Fractions with highest radioactivity were containing purified methylated PP2A were pooled with a total volume of 0.6 mL-0.8 mL. Purified methylated PP2A (50 nM-100 nM) was incubated with MEase (5 nM-20 nM) in 20 μl-50 μl reaction at room temperature for 30 minutes. The reaction was terminated by adding TCA (2 μl-6 μl) to a final concentration of 10%. Released [^3H]-methanol in supernatants was counted with scintillation counter (LS 6000SE, Beckman).

The subject of a further assay is JNPL3 transgenic mice. The assay can be described thus: Motor functions of JNPL3 transgenic mice (composite neuroscore). In kind it is in vivo. Particulars: 0.1% diet. The method, then: The JNPL3 transgenic mouse line that carries the transgene for the human P301 L mutation of the microtubule-associated protein tau gene (MAPT) was used in this experiment (Lewis et al., 2000). 9-12 weeks old homozygous JNPL3 males (Laconic Farms, Hudson, N.Y.) were housed under standard conditions (temperature 22±2° C.; relative humidity 50±10%; 12 h light/12 h dark cycle) and allowed to acclimatize for 2 weeks. Following acclimatization, two groups of animals (6 animals per group) are changed to control diet (Research Diets; New Brunswick, N.J.) or purified 0.1% Compound I-63 formulated diet. The composite neuroscore (NS) was used as the scoring system to measure the following tasks: (1) forelimb flexion response during suspension by the tail, (2) righting and postural reflexes, and (3) prehensile traction test (Yoshiyama et al., 2005; Korenova et al., 2009). The neurological and motor examination included the basic reflex response by special attention to the assessment of the hind-limb escape extension reflex, the righting and postural reflexes and the prehensile traction test where the animal is allowed to grasp with its forepaws a horizontal cotton string (1 mm in diameter) suspended 70 cm above a padded surface. The scoring conditions were graded as follows:
2—Animal maintained forelimbs in scissored, clasped or dystonic position
Postural and Righting Reflex:
0—Animal could right when placed supine
1—Animal righting slowed (>ls)
Prehensile Traction Test:
0—Animal could complete test with at least 3 paws and tail within 2 min
1—Animal could hold on to string without falling within 2 min
2—Animal fell before 2 min without completion
3—Animal was unable to perform test
Each animal was scored using a scaling system ranging from 0-12 (normal), 13-20 (mild or early), 21-23 (moderate) and 24-30 (severe) to reflect serious impairment of neuromuscular functionality and muscular weakness. […]
Motor test scores vs. weeks of mice fed control diet (closed circles) and 0.1% Compound I-63 formulated diet (open circles). […]

Assay [2] has as its system Thyl-alpha-synuclein transgenic mice. Nature of the assay: Locomotor tests (open field, rota-rod) in alpha-synuclein over-expressing mice. It counts as in vivo. Particulars: 0.001% diet (p=0.068). The procedure: Transgenic mice over-expressing the full length human alpha-synuclein have been described previously, and are excellent models for sensorimotor tests that are sensitive to alterations in the nigrostriatal dopaminergic system [Fleming, S. M. et. al, J. Neurosci. 24, 9434-40, (2004)].
Thyl-alpha-synuclein transgenic mice (9-12 weeks old) and age-matched wild type mice were housed in clear plastic cages in a temperature-, and humidity-controlled environment with a 12 hour-light/dark cycle (light switched on at 7 a.m.), and were maintained on an ad libitum diet of lab chow and water. The animal feeds used were either normal (Control) or formulated with Compound I-63 at 0.001% and 0.1%. […]
Locomotor activity was assessed in an open field paradigm by a Digiscan activity monitor utilizing a grid of infrared beams that record the location and path of the animal (horizontal activity) as well as the number of rearing movements (vertical activity). […] Each mouse was then placed in the middle of an open field chamber (42×42 cm acrylic animal cages, AccuScan Instruments) and locomotion was recorded for 10 min. The infrared light beam sensors were connected to a computer that recorded animal position every millisecond. […] The total number of squares crossed by each mouse was recorded and average horizontal and vertical activities was determined for each group of mice. […]
(Falling from the rotarod earlier than controls is read as motor impairment.)

Structures are written as SMILES. Where only a bound is given, the exact number is not on record here.

T1 sequence (P67775 whole entry): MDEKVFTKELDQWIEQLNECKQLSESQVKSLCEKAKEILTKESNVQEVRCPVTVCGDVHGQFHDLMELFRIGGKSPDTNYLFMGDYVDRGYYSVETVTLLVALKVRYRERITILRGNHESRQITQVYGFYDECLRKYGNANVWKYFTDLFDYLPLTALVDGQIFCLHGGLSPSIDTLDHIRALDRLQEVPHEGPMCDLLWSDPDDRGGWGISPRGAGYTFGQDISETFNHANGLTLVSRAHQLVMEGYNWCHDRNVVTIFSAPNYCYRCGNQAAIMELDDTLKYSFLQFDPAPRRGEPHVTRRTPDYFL
T1 sequence (P30153 whole entry partner): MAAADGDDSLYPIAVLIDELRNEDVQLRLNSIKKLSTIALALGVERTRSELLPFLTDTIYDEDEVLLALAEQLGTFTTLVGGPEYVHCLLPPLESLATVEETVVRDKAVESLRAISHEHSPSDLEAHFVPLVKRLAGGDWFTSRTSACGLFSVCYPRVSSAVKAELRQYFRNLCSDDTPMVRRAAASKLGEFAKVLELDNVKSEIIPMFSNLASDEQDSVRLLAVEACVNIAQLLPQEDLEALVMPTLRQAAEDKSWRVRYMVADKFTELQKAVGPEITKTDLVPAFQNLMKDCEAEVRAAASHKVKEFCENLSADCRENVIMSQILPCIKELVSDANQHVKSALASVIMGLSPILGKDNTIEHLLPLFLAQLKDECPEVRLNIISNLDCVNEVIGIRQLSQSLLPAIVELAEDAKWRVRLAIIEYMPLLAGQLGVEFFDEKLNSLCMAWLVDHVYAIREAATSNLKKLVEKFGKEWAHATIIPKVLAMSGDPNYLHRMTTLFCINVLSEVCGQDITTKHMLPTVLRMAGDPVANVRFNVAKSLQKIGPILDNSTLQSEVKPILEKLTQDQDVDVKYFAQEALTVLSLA

Consider `CCCCCCCCCCCCCCCCCCCC(=O)NCCc1c[nH]c2ccc(O)cc12` [Compound I-63, N-(2-(5-hydroxy-1H-indol-3-yl)ethyl)icosanamide], for which the IC50 is over 100 µM on PP2A and under 10 µM in assay [1]. The “mean motor test scores less than mice on control diet” value with JNPL3 transgenic mice (after eleven weeks) and in the assay with JNPL3 transgenic mice (after twelve weeks) was 75% throughout. In addition, the “protection from developing motor dysfunction” value in the assay with JNPL3 transgenic mice (after ten weeks) is recorded as “protection of JNPL3 transgenic mice from developing motor dysfunction”. Moreover, the horizontal activity result in assay [2] is on record as “increase”.

As usually defined, the IC50 is the concentration that inhibits the measured activity by half.

The values are drawn from patent publication US10583119B2, “Compounds, compositions and methods for making the same” (Signum Biosciences, Inc., priority 2008, dated 2020).
